# Assay results reported in patent US20180028553A1, “USE OF STING AGONIST AS CANCER TREATMENT” (The University of Chicago, priority 2013, published 2018).
# Entries after “also recorded” stand apart in the source; their conditions may differ.
# Tests used:
# IFN-β = assay: Murine IFN-β ELISA, macrophages and BM-DCs; assay type: cell-based, mouse
# Description: Murine IFN-β ELISA. […] Conditioned media were collected after 4 hours. IFN-β concentration was assessed using VeriKine™ Mouse Interferon Beta ELISA Kit (PBL interferon source).
# [1] = tested on: innate cytokines in BM-DCs; assay: Quantitative RT-PCR analysis of cytokines in BM-DCs; assay type: cell-based, mouse; details: DMXAA 25 μg/ml, 4 h
# Description: Quantitative RT-PCR analysis of cytokines. […] Total RNA was isolated using the RNeasy® kit (Qiagen) and incubated with Deoxyribonuclease I, Amplification Grade (Invitrogen). cDNA was synthesized using High Capacity cDNA Reverse Transcription Kit (Applied Biosystem) and expression of cytokines was measured by real-time qRT-PCR using specific primers/probes for mouse INF-β, TNF-α, IL-6 and IL-12p40, using a 7300 Real Time PCR system (Applied Biosystem). The results are expressed as 2^−ΔCt using 18s as endogenous control.
# [2] = tested on: BM-DCs (CD40, CD86, MHC class II); assay: Expression of activation markers on BM-DCs by flow cytometry; assay type: cell-based, mouse; details: WT versus STING-deficient BM-DCs; DMXAA 25 μg/ml or LPS 100 ng/ml
# Description: Expression of activation markers by flow cytometry. […] Stained cells were analyzed using LSR II cytometer with FACSDiva software (BD) or FACSVerse with FACSuite software. Data analysis was conducted with FlowJo software (Tree Star).
# SIY antigen = assay: IFN-γ ELISPOT and SIY-pentamer staining in B16.SIY tumor-bearing mice; assay type: in vivo, mouse
# Description: The mouse IFN-γ enzyme-linked Immunospot assay (ELISPOT) from BD is used according to the manufacturer's protocol. In brief, splenocytes are plated at 10^6 cells/well and stimulated overnight with SIY peptide (160 nM), PMA (50 ng/ml) and ionomycin (0.5 μM) as positive control, or medium (DMEM supplemented with 10% heat-inactivated FCS, penicillin, streptomycin, L-arginine, L-glutamine, folic acid, and L-asparagine) as negative control. IFN-γ spots are detected using biotinylated antibody and avidin-peroxidase and developed using AEC substrate (BD Bioscience). Plates are read in an Immunospot Series 3 Analyzer and analyzed with ImmunoSpot software (Cellular Technology Ltd).
# 5×10^6 cells/sample are labeled with PE-MHC class I tetramers (Beckman Coulter or Proimmune) consisting of murine H-2Kb complexed to either […] (SIY) peptide or […] (OVA) peptide as a negative control, anti-TCRβ-AF700 (clone H57-597), antiCD8-PO (clone 5H10), anti-CD4-PB (clone RM4-5), anti CD62L-PE_Cy7 (clone MEL-14), anti-CD44-APC (clone IM7) and the Fixable Viability dye eFluor780 (eBioScience). FACS analysis is performed using FACSCanto or LSR II cytometers with FACSDiva software (BD). Data analysis is conducted with FlowJo software (Tree Star).
# IFN-γ ELISPOT and SIY-pentamer staining. […] For the ELISPOTs, 10^6 splenocytes were plated per well and stimulated overnight with SIY peptide (160 nM) or AH1 (1 μM) peptide, with PMA (50 ng/ml) plus ionomycin (0.5 μM) as a positive control, or medium as negative control. Spots were developed using the BD mouse IFN-γ kit according to the manufacturer's instructions and the number of spots was measured using an Immunospot Series 3 Analyzer and analyzed using ImmunoSpot software (Cellular Technology Ltd). For SIY-pentamer staining, splenocytes were preincubated for 15 min with anti-CD16/32 monoclonal antibody (93) to block potential nonspecific binding, and labeled with PE-MHC class I pentamer (Proimmune) consisting of murine H-2K^b complexed to […] (SIY) peptide, anti-TCRβ-AF700 (H57-597), anti-CD8-Pacific Blue (53-6.7), anti-CD4-Pacific Orange (RM4-5) (all antibodies from BioLegend) and the Fixable Viability Dye eFluor 450 (eBioscience). Stained cells were analyzed using LSR II cytometer with FACSDiva software (BD). Data analysis was conducted with FlowJo software (Tree Star).
# B16.F10 tumors = assay: Intratumoral treatment of established B16.F10 tumors; assay type: in vivo, mouse; details: C57BL/6 mice, single IT dose of 500 μg DMXAA
# Description: (§1) In vivo tumor experiments. 10^6 of B16-SIY tumor cells, 5×10^4 B16.F10 tumor cells, 10^5 4T1 and CT26, or 10^6 other tumor cells were injected s.c. in 100 μl DPBS or HBSS on the right flank of mice. Following tumor implantation, mice were randomized into treatment groups. […] Measurements of tumors were performed twice per week using calipers, and the tumor volume was calculated with the formula: V=(length×width^2)/2. In some experiments, tumor-free survivors were rechallenged with tumor cells on the opposite flank several weeks after the injection of the primary tumor. Naïve mice were used as controls. For the contralateral experiments, mice were implanted on both flanks and only one tumor was treated. For the B16 melanoma lung metastasis experiments, mice were implanted on the flank with 5×10^4 cells B16.F10 on day 0, and then injected intravenously with 1×10^5 cells on day 7. Lungs were harvested on day 28. Administration of compounds, measurements of tumors and counting of lung tumors were performed in a blinded fashion.
# Ag104L tumors = assay: Intratumoral treatment of Ag104L tumors; assay type: in vivo, mouse; details: C3H mice, single IT dose of 500 μg DMXAA
# Description: as §1
# [3] = tested on: five hSTING alleles (WT, REF, HAQ, AQ and Q); assay: IFN-β luciferase reporter assay in HEK 293T cells expressing hSTING variants; assay type: cell-based, human; details: 100 μg/ml DMXAA, 6 hours
# Description: Luciferase Assay. […] After 20 min, stimulation mixtures were removed and normal media was added. After a total of 6 hours, cell lysates were prepared and reporter gene activity measured using the Dual Luciferase Assay System (Promega) on a Spectramax M3 luminometer.
# tumors = details: background statement; cited from earlier work
compound,measurement,setting,value
"Cc1ccc2c(=O)c3cccc(CC(=O)O)c3oc2c1C [DMXAA, 5,6-dimethylXAA (xanthenone-4-acetic acid)]",IFN-β production,"IFN-β; BM-DC from WT versus STING^−/− mice, DMXAA",a high production of IFN-β
same,IFN-β production,"IFN-β; STING^−/− macrophages, DMXAA 50 μg/ml",only in WT macrophages; also recorded: not from STING^−/− macrophages
same,IFN-β production,"IFN-β; WT macrophages, DMXAA 50 μg/ml",high production of IFN-β; also recorded: IFN-β secretion was detected
same,expression of innate cytokines,[1]; STING^−/− BM-DCs,not STING^−/− BM-DCs
same,expression of innate cytokines,[1]; WT BM-DCs,"upregulated other cytokines such as TNFα, IL6, IL1, IL10, and IL12 in a STING dependent manner; also recorded: IFN-β, TNF-α, IL-1β, IL-6 and IL12p35 were induced"
same,"induction of co-stimulatory molecules (CD40, CD86, MHC class II)",[2],upregulated activation markers such as CD40 and C86 in a STING dependent manner; also recorded: observed only in WT cells
same,frequencies of SIY-specific T cells,SIY antigen; STING^−/− mice,markedly reduced
same,SIY-specific CD8+ T cells by SIY pentamer staining,"SIY antigen; WT mice, spleens (b243 also tumors), after IT DMXAA",higher amount of CD8+ SIY specific T cells; also recorded: high frequency of SIY-specific CD8^+ T cells
same,endogenous T cell response against SIY (ELISPOT and CD8 SIY positive cells in spleen and tumors),SIY antigen; one week after injection,highly increased
same,increase in number of specific T cells producing IFN-g upon stimulation with SIY (ELISPOT),"SIY antigen; one week after injection, versus saline",10 fold
same,frequency of SIY-specific IFN-γ-producing T cells (ELISPOT),"SIY antigen; splenocytes 5 days after treatment, 500 μg IT, WT mice",marked increase
same,tumor growth,B16.F10 tumors,significantly reduced the growth
same,tumor growth,Ag104L tumors,significantly reduced the growth
same,IFN-β reporter activation,[3],failed to activate
same,antitumor effect,tumors,induced haemorrhagic necrosis and tumour regression
